Literature values as cited in US20190365934A1, “METHODS FOR IN VIVO MONITORING OF DO[…] AND EFFICACY OF TREATMENT AGENTS THEREFOR” (LIKEMINDS, INC., priority 2017, published 2019).

Settings: background statement on FDA approved SPECT tracer

Q: Which stable post-injection does the source give for `COC(=O)[C@H]1[C@@H](c2ccc([123I])cc2)C[C@@H]2CC[C@H]1N2CCCF` [[^123I]-FP-CIT, [^123I]-2β-carbomethoxy-3β-(4-iodophenyl)-N-(3-fluoropropyl) nortropane] here?
A: 4 h
